Results from ChEMBL document CHEMBL4184211, “Regioselectivity of thiouracil alkylation: Application to optimization of Darapladib synthesis” (Bioorg Med Chem Lett, 2018).

Columns and labels:
[1] = biological target: T1, Platelet-activating factor acetylhydrolase (Homo sapiens, UniProt Q13093); assay: (§1) Inhibition of Lp-PLA2 in human plasma LDL fractions using 2-thio platelet-activating factor as substrate by […] dye based spectrophotometry
T1 sequence (Q13093 whole entry): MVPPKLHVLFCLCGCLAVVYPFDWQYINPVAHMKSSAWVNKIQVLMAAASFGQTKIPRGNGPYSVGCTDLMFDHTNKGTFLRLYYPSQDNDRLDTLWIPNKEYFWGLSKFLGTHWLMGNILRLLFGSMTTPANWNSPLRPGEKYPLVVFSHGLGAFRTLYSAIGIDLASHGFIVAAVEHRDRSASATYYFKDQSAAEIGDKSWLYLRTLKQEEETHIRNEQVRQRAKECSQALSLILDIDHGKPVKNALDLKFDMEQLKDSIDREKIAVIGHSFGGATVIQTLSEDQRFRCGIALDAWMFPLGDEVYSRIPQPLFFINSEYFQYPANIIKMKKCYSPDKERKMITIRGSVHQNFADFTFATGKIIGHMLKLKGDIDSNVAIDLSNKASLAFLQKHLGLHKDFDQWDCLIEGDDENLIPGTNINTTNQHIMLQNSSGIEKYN

[2] = biological target: T2, Platelet-activating factor acetylhydrolase (Homo sapiens) (UniProt Q13093); assay: as §1
T2 sequence (whole entry): T1 sequence (Q13093 whole entry)

Row | IC50 ([1]; read-out: IC50) [nM] | IC50 [1] | inhibition [2] | Structure (SMILES)
1 | > 100 | – | – | CCN(CC)CCN(Cc1ccc(-c2ccc(C(F)(F)F)cc2)cc1)C(=O)COc1nc(SCc2ccc(F)cc2)nc2c1CCC2
2 | – | Not Active | – | CC(C)(C)OC(=O)COc1nc(SCc2ccc(F)cc2)nc2c1CCC2
3 | 52.4 | – | Dose-dependent effect | CC(C)(C)OC(=O)Cn1c(SCc2ccc(F)cc2)nc(=O)c2c1CCC2
